From patent US10501479B2, “Benzenesulfonyl-asymmetric ureas and medical uses thereof” (HELSINN HEALTHCARE SA, priority 2016, dated 2019) come the findings set out here.

Usually pIC50 stands for the negative decadic logarithm of the IC50, by convention in mol/L.

A short description of data set [1]: Metabolic stability in human liver microsomes. It is filed as in vitro ADME. The procedure, abridged: (§1)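 Parent compound was measured by LC-MS/MS at 0, 10, 30 and 90 min after NADPH-initiated incubation with liver microsomes at 37 °C. Buffer was 100 mM potassium phosphate, pH 7.4; time-zero concentration was taken before NADPH addition.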
(Liver microsomes are a subcellular fraction often used to study metabolism.)

For data set [2], the target named is T1, recombinant human ghrelin receptor (HEK293/GRLN) (Homo sapiens, UniProt Q92847).
T1 construct: expressed in transfected cells
T1 sequence (Q92847 whole entry): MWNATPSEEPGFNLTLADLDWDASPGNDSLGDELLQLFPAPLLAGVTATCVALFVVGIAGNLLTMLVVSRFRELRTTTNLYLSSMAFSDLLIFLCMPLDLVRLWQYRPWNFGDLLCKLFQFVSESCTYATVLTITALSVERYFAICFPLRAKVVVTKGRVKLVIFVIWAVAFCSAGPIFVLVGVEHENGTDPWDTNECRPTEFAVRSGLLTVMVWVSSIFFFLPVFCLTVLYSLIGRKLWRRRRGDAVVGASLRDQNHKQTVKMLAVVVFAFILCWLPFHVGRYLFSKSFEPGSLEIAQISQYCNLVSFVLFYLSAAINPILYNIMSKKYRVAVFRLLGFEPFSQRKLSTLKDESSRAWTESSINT
The data set is described as follows: Ghrelin inverse agonist potency (EC50) with IP-1 (IP-One HTRF) assay. Format: cell-based. The note with it: IP-1 assay. The procedure, abridged:
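HEK293/GRLN cells were seeded 18-22 hours before the test, then exposed to compound in stimulation buffer for 1 hour at 37° C, 5% CO2. IP-1 was detected by IP-One HTRF (IP1-d2 plus Tb-cryptate, 1 hour RT), reading 620 and 665 nm; the inverse agonist EC50 was derived from this.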

For data set [3], the target named is T2, GHSR-1a (HEK293/GHSR1a cell line) (Homo sapiens, UniProt Q92847).
T2 construct: expressed in transfected cells; host or cells: HEK293/GHSR1a cell line
T2 sequence (Q92847 whole entry): as above
The data set is described as follows: Ghrelin antagonist potency (IC50) with calcium FLIPR assay, ghrelin 10 nM. It is filed as cell-based. The procedure, abridged: (§2)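 Dye preload 30-60 min, RT or 37° C; compound in DMSO. Agonist mode: compound at t=20 sec, Ca2+ read 2 min. Antagonist mode: compound + ghrelin 10 nM at t=20 sec, 2 min read. EC50/IC50 from dose-response curves.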

Data set [4] is described as follows: Animal PK study in mouse via i.v., p.o. and s.c. administration. It is filed as in vivo. As to the method:
All treated animals received a single dose of a test compound (either through i.v., p.o., or s.c. administration) according to the regimen shown in the following table:
For oral dose groups, appropriate amount of test compound was prepared in the following formulation carrier: 1% DMSO (increase to 5% maximum if necessary) and 0.5% Methycellulose. Each mouse or rat received by oral gavage 10 mL/kg of the formulation mixture.
For i.v. and s.c dose groups, appropriate amount of test compound was dissolved in 1% DMSO (increase to 5% maximum if necessary), 99% of 20% HP-β-Cyclodextron (w/v). The pH was adjusted accordingly. Each mouse or rat received 5 mL/kg of the formulation mixture. i.v. dose was administered by tail vein injection. Subcutaneous injection was administered over the shoulders, into the loose skin over the neck. At designated time points (e.g., i.v. and s.c.: 0.083, 0.25, 0.5, 1, 2, 4, 8 and 24 hrs; p.o.: 0.25, 0.5, 1, 2, 4, 8 and 24 hrs), systemic samples of blood (50 μL in mouse or 500 μL in rat) were collected by puncture (submandibular vein in mouse or jugular vein in rat) into vacutainers containing EDTA-K2 as anti-coagulant. The blood was centrifuged at 6000 rpm for 8 min at 4° C. to obtain plasma. All plasma samples were stored at −20° C. All plasma samples were added to acetonitrile for protein precipitation and quantitatively analyzed by LC-MS/MS.

A short description of data set [5]: Metabolic stability in mouse liver microsomes. It is filed as in vitro ADME. The procedure, abridged:
as §1

In data set [6] the target is T2, GHSR-1a (HEK293/GHSR1a cell line). The data set is described as follows: Ghrelin agonist potency (EC50) with calcium FLIPR assay. It is filed as cell-based. The procedure, abridged:
as §2

Data set [7] in a line: Animal PK study in rat via i.v., p.o. and s.c. administration. Format: in vivo. The following applies: rat (R), i.p.; for half-life: plasma, ip, read-out: PK T1/2 i.p.
Where [8] appears, read: inverse agonist potency, read-out: EC50 (Activity).
Setting [9] is: ghrelin antagonist potency, read-out: IC50 (Activity).
The mark [10] stands for this setting: ghrelin inverse agonist potency, read-out: Activity EC50.
[11] abbreviates: ghrelin antagonist potency, read-out: Activity IC50.
[12] abbreviates: ghrelin agonist potency, read-out: Activity EC50/EMax.

pEC50, pIC50: −log10 of the molar value. Values joined by “and” are separate entries in the source; they are usually repeats but may differ in a detail not shown here. Identical values can stand only once. Like-named read-outs stand apart in the source and are kept apart here. Bounds are passed on as bounds.

Turning to `CC(NC(=O)Nc1ccc(S(=O)(=O)Cc2ccc3c(c2)CNC3)cc1)c1cccc2ccccc12.Cl` (stereo not drawn) [H1149, 1-(4-((isoindolin-5-ylmethyl)sulfonyl)phenyl)-3-(1-(naphthalen-1-yl)ethyl)urea], the “Metabolic Stability Study H = human” value in data set [1] turned out to be 21.1 µL/min/mg. For the same molecule, the pEC50 in data set [2] (setting [8]) was 8.77 and 8.62. Also, the negative-log IC50 (pIC50) in data set [3] (setting [9]) was 8.32. For the same molecule, the “PK F” value in data set [4] stood at 0.86%. Also, in data set [4] (i.v.), the “PK CLiv” value came to 16.3 mL/min/kg, the “PK Vdiv” value turned out to be 1.22 L/kg and the “PK t1/2iv” value amounted to 0.87 h. Moreover, in data set [4] (p.o.), the “PK CLpo” value was 1792 mL/min/kg, the “PK Vdpo” value is 272 L/kg and the “PK t1/2po” value was found to be 1.75 h. The “Metabolic Stability Study M = mouse” value in data set [5] was 24.3 µL/min/mg.
Turning to `CC(NC(=O)Nc1ccc(S(=O)(=O)Cc2ccc3c(c2)CN(CC2CC2)C3)cc1)c1ccccc1` (stereo not drawn) [H1220, 1-(4-(((2-(cyclopropylmethyl)isoindolin-5-yl)methyl)sulfonyl)phenyl)-3-(1-phenylethyl)urea], the “Metabolic Stability Study H = human” value in data set [1] stood at 183.8 µL/min/mg. The pEC50 in data set [2] (setting [8]) is 7.52. In addition, the pIC50 in data set [3] (setting [9]) is 8.44. The “PK F” value in data set [4] turned out to be 4.71%. Moreover, in data set [4] (i.v.), the “PK CLiv” value was determined as 50.8 mL/min/kg, the “PK Vdiv” value was determined as 3.08 L/kg and the “PK t1/2iv” value is given as 0.7 h. For the same molecule, in data set [4] (p.o.), the “PK CLpo” value turned out to be 1030 mL/min/kg, the “PK Vdpo” value is 78.7 L/kg and the “PK t1/2po” value is reported as 0.89 h. Moreover, the “Metabolic Stability Study M = mouse” value in data set [5] was found to be 248 µL/min/mg.
Regarding `CC(NC(=O)Nc1ccc(S(=O)(=O)Cc2ccc3c(c2)CN(C)C3)cc1O)c1ccccc1` (stereo not drawn) [H1448, 1-(2-hydroxy-4-(((2-methylisoindolin-5-yl)methyl)sulfonyl)phenyl)-3-(1-phenylethyl)urea], the “Metabolic Stability Study H = human” value in data set [1] stood at 28 µL/min/mg. Moreover, the pEC50 is 8.48 in data set [2] (HEK293/GRLN, read-out: Activity EC50 (ghrelin inverse agonist potency)) and less than 4.52 in data set [6] (HEK293/GHSR1a, read-out: Activity EC50/EMax: EC50 (ghrelin agonist potency)). Also, the pIC50 in data set [3] (HEK293/GHSR1a, ghrelin 10 nM, read-out: Activity IC50 (ghrelin antagonist potency)) is 7.52. The “PK F” value in data set [4] is 1.90%. The “PK CL p.o.” value in data set [4] (p.o.) stood at 4243 mL/min/kg. Also, the “PK Vd p.o.” value in data set [4] (p.o.) is 242.2 L/kg. This molecule returned a Vd in data set [4] (plasma, iv, 5 mg/kg) of 9.26 L/kg. Also, the clearance in data set [4] (plasma, iv, 5 mg/kg, i.v., read-out: PK CL i.v.) is 80.5 mL/min/kg. Also, the half-life in data set [4] (plasma, iv, 5 mg/kg, i.v., read-out: PK t1/2 i.v.) stood at 1.33 h; in data set [4] (plasma, po, 10 mg/kg, p.o., read-out: PK t1/2 p.o.) it was 0.66 h. In data set [5], the “Metabolic Stability Study M = mouse” value was 20.8 µL/min/mg.
Turning to `COc1cc(NC(=O)NC(C)c2ccccc2)ccc1S(=O)(=O)Cc1ccc2c(c1)CNC2` (stereo not drawn) [H1461, 1-(4-((isoindolin-5-ylmethyl)sulfonyl)-3-methoxyphenyl)-3-(1-phenylethyl)urea], the “Metabolic Stability Study H = human” value in data set [1] came out at 22.0 µL/min/mg. Moreover, the pEC50 in data set [2] (setting [10]) was 8.46. Besides, in data set [7], the half-life was 2.61 h, the “PK CL i.p.” value was 38.3 mL/min/kg and the “PK Vd i.p.” value was found to be 8.64 L/kg. The pIC50 in data set [3] (setting [11]) is 8.10. Besides, the pEC50 in data set [6] (setting [12]) is less than 4.52. Also, in data set [5], the “Metabolic Stability Study M = mouse” value is less than 10 µL/min/mg.
Regarding `CC(c1ccccc1)N(O)C(=O)Nc1ccc(S(=O)(=O)Cc2ccc3c(c2)CNC3)cc1` (stereo not drawn) [H1472, 1-hydroxy-3-(4-((isoindolin-5-ylmethyl)sulfonyl)phenyl)-1-(1-phenylethyl)urea], the pEC50 in data set [2] (setting [10]) was 8.49. Also, in data set [7], the half-life was found to be 2.43 h, the “PK CL i.p.” value was determined as 36.5 mL/min/kg and the “PK Vd i.p.” value stood at 7.71 L/kg. Further, in data set [3] (setting [11]), the negative-log IC50 (pIC50) was 8.22. Moreover, in data set [6] (setting [12]), the pEC50 is less than 4.52.
